Reference: paper PMC7507806 (ACS Pharmacology & Translational Science, 2020)
pEC50, pIC50: −log10 of the molar value. Where two headings read alike, the source gives them in different places. Non-standard residues stand in square brackets, D forms with d. Residues, ends and D or L forms follow the SMILES beside them. *: point of attachment. Nva = CCC[C@H](N)C(=O)O; Cbz = O=C(OCc1ccccc1)*

Columns and labels:
[1] = system: SARS-CoV-2 (USA_WA1/2020); assay: SARS-CoV-2 cytopathic effect; type: cell-based; conditions: Vero E6 cells; for pEC50: read-out: SARS-CoV-2 CPE EC50
[2] = system: Vero E6 cells; conditions: for CC50: read-out: Vero E6 cytotoxicity CC50
[3] = target: T1, SARS-CoV-2 3CL^pro (Severe acute respiratory syndrome coronavirus 2, UniProt P0DTD1); type: biochemical; conditions: for pIC50: read-out: 3CL^pro inhibition IC50
[4] = system: SARS-CoV-2; conditions: cited from earlier work
[5] = target: T1, SARS-CoV-2 3CL^pro; conditions: cited from earlier work
[6] = system: SARS-CoV-2 virus; conditions: cited from earlier work
[7] = Table 2, compounds with partial fluorescence quenching effect

Compound | SARS-CoV-2 CPE efficacy ([1]; 72 h, Table 1 compounds) [%] | pEC50 ([1]; 72 h, Table 1 compounds) | Vero E6 cytotoxicity efficacy ([2]; no virus, Table 1 compounds) [%] | CC50 ([2]; no virus, Table 1 compounds) [µM] | 3CL^pro inhibition max resp ([3]; Table 1 compounds) [%] | other results
Cc1cc(SCc2sc(-c3ccc(C(F)(F)F)c(F)c3)nc2C)ccc1OCC(=O)O [GW-0742] | 0 | < 4.70 | 0 | > 20 | 126.23 | –
O=C(O)c1ccc(N2C(=O)/C(=C\c3ccc(-c4ccc([N+](=O)[O-])cc4)o3)C=C2c2ccccc2)cc1 [4E1RCat] | 0 | < 4.70 | 0 | > 20 | 76.33 | pIC50 [3]: 4.74
O=C1C(SCCO)=C(SCCO)C(=O)c2ccccc21 [NSC 95397] | 0 | < 4.70 | 111.33 | 14.1 | 98.7 | –
O=C1C(Cl)=C(NCCN2CCOCC2)C(=O)c2ncccc21 [DA-3003–1] | 53.77 | 5.35 | 112 | 7.74 | – | activity in CPE assay [1]: exhibited CPE activity
Oc1c(Cl)cc(Cl)c(Cl)c1Cc1c(O)c(Cl)cc(Cl)c1Cl [hexachlorophene] | – | – | – | – | – | Vero E6 cytotoxicity efficacy ([2]; Table 2 quenching compounds): 63.02%
Cc1cc(C(=O)N[C@@H](C)C(=O)N[C@H](C(=O)N[C@@H](CC(C)C)C(=O)NC(/C=C/C(=O)OCc2ccccc2)C[C@@H]2CCNC2=O)C(C)C)no1 (some centres unmarked) [N3] | – | – | – | – | – | antiviral activity in viral RNA quantification and plaque-reduction assays [4]: strongest antiviral activity
COc1ccc2cc(-c3cc(-c4cc(Cl)cc(Cl)c4)nn3[C@@H](C)c3ccc(C(=O)NCCC(=O)O)cc3)ccc2c1 [MK 0893] | 23.89 | – | 80.04 | – | 95.77 | –
CCC[C@@H](C=O)NC(=O)[C@H](CC(C)C)NC(=O)[C@H](CC(C)C)NC(=O)OCc1ccccc1 [MG-115] (Cbz-Leu-Leu-[Nva]-aldehyde) | – | – | 115.48 | 1.13 | 74.89 | –
CCCCCCCCCCCCCCCc1cccc(O)c1C(=O)O [anacardic acid] | – | – | – | – | – | SARS-CoV-2 CPE efficacy ([1]; Table 2 quenching compounds): 89.62%; pEC50 ([1]; Table 2 quenching compounds): 5.40; Vero E6 cytotoxicity efficacy ([2]; Table 2 quenching compounds): 72.92%; 3CL^pro inhibition max resp [3, 7]: 105.9%
O=C(Nc1cc(C(F)(F)F)cc(C(F)(F)F)c1)c1cnc(Cl)nc1C(F)(F)F [SP 100030] | 0 | < 4.70 | 0 | > 20 | – | –
O=C1Nc2ccc(I)cc2/C1=C/c1cc(Br)c(O)c(Br)c1 [GW5074] | – | – | – | – | – | Vero E6 cytotoxicity efficacy ([2]; Table 2 quenching compounds): 20.1%; CC50 ([2]; Table 2 quenching compounds): 11.2 µM; 3CL^pro inhibition max resp [3, 7]: 63.16%
Cc1cccc(C)c1OCC(=O)N[C@@H](Cc1ccccc1)[C@@H](O)C[C@H](Cc1ccccc1)NC(=O)[C@H](C(C)C)N1CCCNC1=O [Lopinavir] | – | – | – | – | – | inhibition of 3CL^pro [5]: did not show inhibition
Cc1[nH]c(/C=C2\C(=O)Nc3cc(-c4ccccc4)ccc32)c(C)c1CCC(=O)O [SU 16f] | 0 | < 4.70 | 23.57 | 7.94 | – | –
CC(C)(C)NC(=O)N[C@H](C(=O)N1C[C@H]2[C@@H]([C@H]1C(=O)NC(CC1CCC1)C(=O)C(N)=O)C2(C)C)C(C)(C)C (some centres unmarked) [Boceprevir] | – | – | – | – | – | activity in CPE and viral yield reduction assays [6]: active in both CPE and viral yield reduction assays; pEC50 ([6]; read-out: EC50 against SARS-CoV-2 virus infection in the CPE assay): 5.72
Cc1ccc(C(=O)Nc2ccc(S(=O)(=O)O)c3cc(S(=O)(=O)O)cc(S(=O)(=O)O)c23)cc1NC(=O)c1cccc(NC(=O)Nc2cccc(C(=O)Nc3cc(C(=O)Nc4ccc(S(=O)(=O)O)c5cc(S(=O)(=O)O)cc(S(=O)(=O)O)c45)ccc3C)c2)c1 [suramin sodium] | 0 | – | 0 | – | 99.49 | activity in CPE assay [1]: neither effective in CPE assay; cytotoxicity to Vero E6 cells ([2]; African green monkey): nor cytotoxic to Vero E6 cells
CCCCCCCc1ccc(CCc2cccc(O)c2C(=O)O)cc1 [MG-149] | – | – | – | – | – | Vero E6 cytotoxicity efficacy ([2]; Table 2 quenching compounds): 23.42%
C/C1=C2/[N-][C@H]([C@H](CC(N)=O)[C@@]2(C)CCC(=O)NC[C@@H](C)OP(=O)([O-])O[C@H]2[C@@H](O)[C@@H](n3cnc4cc(C)c(C)cc43)O[C@@H]2CO)[C@]2(C)N=C(/C(C)=C3N=C(/C=C4N=C1[C@@H](CCC(N)=O)C\4(C)C)[C@@H](CCC(N)=O)[C@]\3(C)CC(N)=O)[C@@H](CCC(N)=O)[C@]2(C)CC(N)=O.[Co+3].[OH-] [hydroxocobalamin] | 0 | < 4.70 | 0 | > 20 | 89.56 | activity in CPE assay [1]: neither effective in CPE assay; cytotoxicity to Vero E6 cells [2]: nor cytotoxic to Vero E6 cells
O=C1c2ccccc2-[n+]2ccc3c([nH]c4ccccc43)c21 [fascaplysin] | 0 | – | 99.28 | – | 63.44 | –

Compound | SARS-CoV-2 CPE efficacy ([1]; 72 h, Table 1 compounds) [%] | pEC50 ([1]; 72 h, Table 1 compounds) | Vero E6 cytotoxicity efficacy ([2]; no virus, Table 1 compounds) [%] | CC50 ([2]; no virus, Table 1 compounds) [µM] | 3CL^pro inhibition max resp ([3]; Table 1 compounds) [%] | other results
CCCCCCCCCCCCCCCCC(C(=O)O)C(O)(CC(=O)O)C(=O)O (centres unmarked) [agaric acid] | 0 | < 4.70 | 0 | > 20 | 110.16 | –
CC1(C)OC2=C(C(=O)c3ccccc3C2=O)[C@H](NCc2ccccc2)[C@@H]1O [CAY-10581] | 0 | < 4.70 | 0 | > 20 | – | –
CC#C[C@@H](CC(=O)O)c1ccc(OCc2cccc(-c3ccc(C(F)(F)F)cc3)c2)cc1 [AMG-837] | – | – | – | – | – | SARS-CoV-2 CPE efficacy ([1]; Table 2 quenching compounds): 106.31%; Vero E6 cytotoxicity efficacy ([2]; Table 2 quenching compounds): 20.2%; 3CL^pro inhibition max resp [3, 7]: 65.79%
Cc1cc(O[C@@H](CCC(F)(F)F)c2ccc(C(=O)NCCC(=O)O)cc2)cc(C)c1-c1ccc(C(C)(C)C)cc1 [adomeglivant] | – | – | – | – | – | SARS-CoV-2 CPE efficacy ([1]; Table 2 quenching compounds): 49.2%; Vero E6 cytotoxicity efficacy ([2]; Table 2 quenching compounds): 36.97%
CCCC(NC(=O)C(CC(C)C)NC(=O)OCc1ccccc1)C(=O)C(=O)NCc1ccccn1 (centres unmarked) [calpain inhibitor XII] | – | – | – | – | – | activity in CPE and viral yield reduction assays [6]: active in both CPE and viral yield reduction assays
CSCC[C@@H](C=O)NC(=O)[C@H](CC(C)C)NC(=O)[C@H](CC(C)C)NC(C)=O [calpain inhibitor II] (Ac-Leu-Leu-Met-aldehyde) | – | – | – | – | – | activity in CPE and viral yield reduction assays [6]: active in both CPE and viral yield reduction assays
O=C(O)Cc1cccc(OCCCN(Cc2cccc(C(F)(F)F)c2Cl)CC(c2ccccc2)c2ccccc2)c1 [GSK-3965] | – | – | – | – | – | SARS-CoV-2 CPE efficacy ([1]; Table 2 quenching compounds): 22.51%; Vero E6 cytotoxicity efficacy ([2]; Table 2 quenching compounds): 82.34%; CC50 ([2]; Table 2 quenching compounds): 14.1 µM; 3CL^pro inhibition max resp [3]: 108.24%; pIC50 [3]: 4.67
CC(C)c1ccc2c(c1)c(SC(C)(C)C)c(CC(C)(C)C(=O)O)n2Cc1ccc(Cl)cc1 [MK-886] | – | – | – | – | – | Vero E6 cytotoxicity efficacy ([2]; Table 2 quenching compounds): 40.83%; CC50 ([2]; Table 2 quenching compounds): 14.1 µM; 3CL^pro inhibition max resp [3, 7]: 109.11%
CC1(C)CCC2=C(O1)c1ccccc1C(=O)C2=O [beta-lapachone] | 0 | – | 15.06 | – | 60.88 | –
CN[C@H](CC(C)C)C(=O)N[C@H]1C(=O)N[C@@H](CC(N)=O)C(=O)N[C@H]2C(=O)N[C@H]3C(=O)N[C@H](C(=O)N[C@H](C(=O)O)c4cc(O)cc(O)c4-c4cc3ccc4O)[C@H](O[C@H]3C[C@](C)(N)[C@@H](O)[C@H](C)O3)c3ccc(c(Cl)c3)Oc3cc2cc(c3O[C@@H]2O[C@H](CO)[C@@H](O)[C@H](O)[C@H]2O[C@H]2C[C@](C)(NCc3ccc(-c4ccc(Cl)cc4)cc3)[C@@H](O)[C@H](C)O2)Oc2ccc(cc2Cl)[C@H]1O.O=P(O)(O)O.O=P(O)(O)O [oritavancin (diphosphate)] | 0 | < 4.70 | 23.51 | 14.1 | 93.29 | –
vitamin B12 | 0 | < 4.70 | 0 | > 20 | – | 3CL^pro inhibition max resp [3]: 71.06%
O.O=C(OC[C@H]1O[C@@H](OC(=O)c2cc(O)c(O)c(O)c2)[C@H](OC(=O)c2cc(O)c(O)c(O)c2)[C@@H](OC(=O)c2cc(O)c(O)c(O)c2)[C@@H]1OC(=O)c1cc(O)c(O)c(O)c1)c1cc(O)c(O)c(O)c1 [penta-O-galloyl-β-D-glucose hydrate] | – | – | 80.28 | 11.2 | 109.94 | –
Brc1c(Br)c(Br)c2n[nH]nc2c1Br [TBB] | – | – | 80.93 | 8.91 | 77.96 | –
CC1=NN(c2ccc(C)c(C)c2)C(=O)/C1=N\Nc1cccc(-c2cccc(C(=O)O)c2)c1O [eltrombopag olamine] | – | – | – | – | – | SARS-CoV-2 CPE efficacy ([1]; Table 2 quenching compounds): 74.39%; Vero E6 cytotoxicity efficacy ([2]; Table 2 quenching compounds): 68.67%
CC(C)c1nc(CN(C)C(=O)N[C@H](C(=O)N[C@@H](Cc2ccccc2)C[C@H](O)[C@H](Cc2ccccc2)NC(=O)OCc2cncs2)C(C)C)cs1 [ritonavir] | – | – | – | – | – | inhibition of 3CL^pro [5]: did not show inhibition
COCCn1c2c([n+](Cc3cnccn3)c1C)C(=O)c1ccccc1C2=O [sepantronium bromide] | 0 | – | 20.12 | – | 61.79 | –
O=c1c2ccccc2[se]n1-c1ccccc1 [ebselen] | – | – | – | – | – | antiviral activity in viral RNA quantification and plaque-reduction assays [4]: strongest antiviral activity
